Laboratory results reported in PubChem BioAssay (NCI).
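Grown in 96-well plates, cells were treated for 48 hours with each compound at five concentrations. Insufficient inhibition: endpoint recorded as highest concentration tested. The concentration for full growth arrest is given as TGI.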

Tests used:
Assay in all cases: NCI tumour cell line growth inhibition, 48 h
HOP-92 NSCLC = test system: HOP-92 NSCLC
HL-60(TB) leukemia = test system: HL-60(TB) leukemia
SK-MEL-2 melanoma = test system: SK-MEL-2 melanoma
SNB-75 CNS = test system: SNB-75 CNS
DU-145 prostate = test system: DU-145 prostate
786-0 renal = test system: 786-0 renal
NCI-H522 lung = test system: NCI-H522 lung
KM12 colon = test system: KM12 colon
OVCAR-8 ovarian = test system: OVCAR-8 ovarian
HCT-116 colon = test system: HCT-116 colon
SK-OV-3 ovarian = test system: SK-OV-3 ovarian
SF-539 CNS = test system: SF-539 CNS
NCI-H226 lung = test system: NCI-H226 lung
EKVX NSCLC = test system: EKVX NSCLC
MALME-3M melanoma = test system: MALME-3M melanoma
UACC-257 melanoma = test system: UACC-257 melanoma
MOLT-4 leukemia = test system: MOLT-4 leukemia
UACC-62 melanoma = test system: UACC-62 melanoma
NCI-H460 lung = test system: NCI-H460 lung
HCC-2998 colon = test system: HCC-2998 colon

SMILES | TGI (HOP-92 NSCLC) [µM] | TGI (HL-60(TB) leukemia) [µM] | TGI (SK-MEL-2 melanoma) [µM] | TGI (SNB-75 CNS) [µM] | TGI (DU-145 prostate) [µM] | TGI (786-0 renal) [µM] | TGI (NCI-H522 lung) [µM] | TGI (KM12 colon) [µM] | TGI (OVCAR-8 ovarian) [µM] | TGI (HCT-116 colon) [µM] | TGI (SK-OV-3 ovarian) [µM] | TGI (SF-539 CNS) [µM] | TGI (NCI-H226 lung) [µM] | TGI (EKVX NSCLC) [µM] | TGI (MALME-3M melanoma) [µM] | TGI (UACC-257 melanoma) [µM] | TGI (MOLT-4 leukemia) [µM] | TGI (UACC-62 melanoma) [µM] | TGI (NCI-H460 lung) [µM] | TGI (HCC-2998 colon) [µM]
O=C1C(=c2cc3c(c4ccccc24)=NC24CCCCC2C(c2ccccc2)C=C(c2ccccc2)N34)C(=O)c2ccccc21 (stereo unspecified) | > 100 | > 100 | > 100 | > 100 | > 100 | > 100 | 47.5 | > 100 | > 100 | > 100 | > 100 | > 100 | > 100 | > 100 | > 100 | > 100 | 64.7 | – | – | –
COC(=O)Cc1c(/C=C/C(C)(C)n2cnc(CCN3C(=O)CCC3=O)c2)[nH]c2ccccc12 | > 100 | > 100 | > 100 | > 100 | > 100 | > 100 | > 100 | > 100 | > 100 | > 100 | > 100 | > 100 | > 100 | > 100 | 97.8 | > 100 | > 100 | > 100 | > 100 | –
N#Cc1c(-c2cccc(Cl)c2)cc(-c2ccc(Cl)cc2)nc1N | 25.3 | 77.2 | 36.7 | – | > 100 | 33.5 | 30.8 | 80.7 | 70.7 | 34.1 | 46.7 | 34.3 | 34.8 | 45 | 58.4 | 36.1 | 58.6 | 32.7 | 39.2 | –
Cc1ccc([N+](=O)[O-])cc1S(=O)(=O)Nc1ccc(C2=NN(C(=O)c3ccccc3)C(c3cccs3)C2)cc1 (stereo unspecified) | 55.3 | > 100 | 39.5 | 67 | > 100 | 45.2 | 70.8 | > 100 | > 100 | > 100 | 82.5 | 63.9 | 88.3 | 67.7 | 68.6 | 72.9 | > 100 | – | – | –
COC(=O)C(Cc1c(C2Nc3ccccc3C2CC(NC(C)=O)C(=O)OC)[nH]c2ccccc12)NC(C)=O (stereo unspecified) | > 100 | > 100 | > 100 | > 100 | > 100 | > 100 | > 100 | > 100 | > 100 | > 100 | > 100 | > 100 | > 100 | > 100 | > 100 | > 100 | > 100 | > 100 | > 100 | –
NC(=O)CCC(CCC(N)=O)(CCC(N)=O)[N+](=O)[O-] | > 100 | > 100 | > 100 | > 100 | > 100 | > 100 | > 100 | > 100 | > 100 | > 100 | > 100 | > 100 | > 100 | > 100 | > 100 | > 100 | > 100 | > 100 | > 100 | –
CC1(C)CCCCCCC2CC2CCCCCC(C)(C)C1=O (stereo unspecified) | > 100 | 32.7 | > 100 | > 100 | > 100 | > 100 | > 100 | > 100 | > 100 | > 100 | > 100 | > 100 | > 100 | > 100 | > 100 | > 100 | > 100 | > 100 | > 100 | –
CC(C)(C)OC(=O)CC(NC(=O)OC(C)(C)C)C(=O)NC(C(=O)O)C(O)c1ccccc1 (stereo unspecified) | – | – | > 100 | > 100 | > 100 | > 100 | > 100 | > 100 | > 100 | > 100 | > 100 | > 100 | > 100 | > 100 | > 100 | > 100 | > 100 | > 100 | > 100 | > 100
COCCN(CCOC)C(=O)COc1c2cc(C(C)(C)C)cc1Cc1cc(C(C)(C)C)cc(c1OCC(=O)N(CCOC)CCOC)Cc1cc(C(C)(C)C)cc(c1OCC(=O)N(CCOC)CCOC)Cc1cc(C(C)(C)C)cc(c1OCC(=O)N(CCOC)CCOC)Cc1cc(C(C)(C)C)cc(c1OCC(=O)N(CCOC)CCOC)C2 | – | – | 3.19 | 0.576 | 11.1 | 12.2 | 6.9 | 11.1 | 22.8 | 3.78 | 14.6 | 5.9 | 11 | 2.8 | 16.9 | 6.58 | – | 3.53 | 5.86 | 18.3
Cn1c(=O)n2c(-c3ccccc3)c(-c3ccccc3)n2c1=O | > 100 | > 100 | > 100 | > 100 | – | > 100 | – | > 100 | > 100 | > 100 | > 100 | > 100 | > 100 | > 100 | > 100 | > 100 | > 100 | > 100 | > 100 | > 100
O=C1C2=Cc3ccccc3OC2(O)Oc2ccc(O)cc21 (stereo unspecified) | > 100 | – | > 100 | > 100 | > 100 | > 100 | – | > 100 | > 100 | > 100 | > 100 | > 100 | > 100 | > 100 | > 100 | > 100 | > 100 | > 100 | – | > 100
CCC(CCN)(CCN)[N+](=O)[O-] | > 100 | > 100 | > 100 | > 100 | > 100 | > 100 | > 100 | > 100 | > 100 | > 100 | > 100 | > 100 | – | > 100 | > 100 | > 100 | > 100 | > 100 | > 100 | –
CO/N=C(\C(=O)Nc1cncs1)c1csc(N)n1 | > 10 | – | – | > 10 | > 10 | > 10 | > 10 | > 10 | > 10 | > 10 | > 10 | > 10 | – | > 10 | > 10 | > 10 | > 10 | > 10 | > 10 | > 10
CN(C)C1(N(C)C)Oc2c(c(=O)n(C)c(=O)n2C)C(c2ccccc2Br)C1(F)F (stereo unspecified) | > 100 | – | > 100 | > 100 | > 100 | > 100 | – | > 100 | – | > 100 | > 100 | > 100 | > 100 | > 100 | – | > 100 | > 100 | > 100 | > 100 | > 100
COc1ccc2c(c1)CCN1CCCc3ccc(OC)cc3C21 (stereo unspecified) | > 100 | – | > 100 | 83.2 | > 100 | > 100 | > 100 | > 100 | > 100 | > 100 | > 100 | > 100 | > 100 | > 100 | – | > 100 | > 100 | > 100 | – | > 100
CC1OC(OC2C(CO)OC(O[C@H]3CC[C@@]4(C)C(=CC[C@H]5[C@@H]6C[C@@H]7O[C@](O)(CC[C@H](CO)COC8OC(CO)C(O)C(O)C8O)[C@@H](C)[C@@H]7[C@@]6(C)CC[C@@H]54)C3)C(OC3OC(C)C(O)C(O)C3O)C2O)C(O)C(O)C1O (stereo partly specified) | > 100 | – | > 100 | > 100 | > 100 | > 100 | > 100 | > 100 | > 100 | > 100 | > 100 | > 100 | – | > 100 | > 100 | > 100 | > 100 | > 100 | > 100 | > 100
Cc1cn([C@H]2C[C@@H]3[C@@H](COC(CCl)N3O)O2)c(=O)[nH]c1=O (stereo partly specified) | – | > 100 | > 100 | > 100 | > 100 | > 100 | > 100 | > 100 | > 100 | > 100 | > 100 | > 100 | > 100 | > 100 | > 100 | > 100 | > 100 | > 100 | > 100 | –
NC(=O)NC1=NC(Cc2ccccc2)C(=O)N1Cc1ccccc1 (stereo unspecified) | – | > 100 | – | > 100 | – | > 100 | – | > 100 | > 100 | > 100 | > 100 | > 100 | > 100 | > 100 | – | > 100 | > 100 | > 100 | > 100 | > 100
Cc1c(C(=O)/C=C/c2c(Cl)cccc2Cl)c(=O)n(-c2ccccc2)n1C | 74.6 | – | 75 | – | – | 38.6 | 48.5 | 44.8 | > 100 | > 100 | > 100 | – | 39.1 | > 100 | > 100 | > 100 | > 100 | > 100 | 82.7 | 65.8
C(=NCCCN1CCN(CCCN=Cc2cccc3ccccc23)CC1)c1cccc2ccccc12 | – | – | > 100 | > 100 | – | > 100 | > 100 | > 100 | > 100 | > 100 | > 100 | > 100 | > 100 | > 100 | > 100 | > 100 | > 100 | > 100 | > 100 | > 100
CCC1c2[nH]c3ccccc3c2C[C@H]2C(=O)NC(CCCCNC(=O)OC(C)(C)C)C(=O)N12 (stereo partly specified) | 94.4 | 59.6 | 57.8 | 58.2 | > 100 | 81.3 | 50.9 | 44.7 | > 100 | 94.4 | > 100 | – | > 100 | > 100 | 50.5 | 66.8 | 43.5 | 49.2 | > 100 | –
COC(=O)CCc1ccc2c(c1)CC1(Cc3ccccc3C1)C2 | > 100 | > 100 | > 100 | > 100 | – | > 100 | > 100 | > 100 | > 100 | > 100 | > 100 | > 100 | > 100 | > 100 | > 100 | > 100 | > 100 | > 100 | – | > 100
CC(C)n1c(=O)[nH]n(-c2ccccc2)c1=O | > 100 | > 100 | > 100 | > 100 | > 100 | > 100 | > 100 | > 100 | > 100 | > 100 | > 100 | > 100 | > 100 | > 100 | > 100 | > 100 | > 100 | > 100 | > 100 | –
C=C(Br)C(C)(Br)CCC(Br)C(C)(C)Br (stereo unspecified) | 40.6 | 62.3 | 55.7 | 89.2 | – | 44.5 | 28.3 | > 100 | 33.3 | 47.7 | > 100 | 38.8 | > 100 | – | 81.8 | > 100 | 94.2 | 45.1 | > 100 | –
O=C(Nc1sccc1S(=O)(=O)c1ccc(Cl)cc1)c1ccccc1 | > 100 | > 100 | > 100 | > 100 | > 100 | > 100 | > 100 | > 100 | > 100 | > 100 | > 100 | > 100 | > 100 | > 100 | > 100 | > 100 | > 100 | > 100 | > 100 | –
